US12528807B2, “Solid forms of {6-[(2-amino-3-chloropyridin-4-yl)sulfanyl]-3-[(3S,4S)-4-amino-3-methyl-2-oxa-8-azaspiro[4.5]decan-8-yl]-5-methylpyrazin-2-yl} methanol, a SHP2 inhibitor” (Revolution Medicines, Inc., priority 2019, dated 2026)

Assay: Relative thermodynamic stability of the anhydrous polymorphs and transition temperatures between them (thermal techniques)
Format: physicochemical
Settings: for Temperature at which the form is thermodynamically (physically) stable: approximate
Protocol: Forms A, B, C, and D are anhydrous polymorphs of Compound 1. Thermal techniques provide data that the relative stability of the forms change with temperature. Both Forms A and C are enantiotropically related to each other and to Form D; Form A is thermodynamically stable above approximately 80° C., Form C is the stable form between approximately 80 and 43° C., and Form D is physically stable below approximately 43° C. […]
Differential scanning calorimetry performed using TA instruments Q2000: Temperature calibration was performed using NIST-traceable indium metal. The sample was placed into an aluminum Tzero crimped pan and the weight was accurately recorded. A weighed aluminum pan configured as the sample pan was placed on the reference side of the cell. The samples were analyzed from −30 to 250° C. at a ramp rate of 10° C./min.
Differential scanning calorimetry performed using Mettler-Toledo DSC3+: Temperature calibration was performed using adamantane, phenyl salicylate, indium, tin, and zinc. The sample was placed into a hermetically sealed or an open aluminum DSC pan, and the weight was accurately recorded. A weighed aluminum pan configured as the sample pan was placed on the reference side of the cell. The samples were analyzed from −30 to 250° C. at a ramp rate of 10° C./min. Although thermograms are plotted by reference temperature (x-axis), results are reported according to sample temperatures.

SMILES | Conversion between Forms A, C, and D upon reaching the corresponding relevant temperatures | Relative Thermodynamic Stability of Polymorphs (above ~80° C.) | Temperature at which the form is thermodynamically (physically) stable | Temperature at which the form is thermodynamically (physically) stable (listed as Form D) | Relative Thermodynamic Stability of Polymorphs (between ~43 and ~65° C.) | Relative Thermodynamic Stability of Polymorphs (between ~65 and ~80° C.) | Relative Thermodynamic Stability of Polymorphs (subambient up to ~43° C.) | Estimated Transition Point Temperature between Enantiotropic Polymorphs, to Form D | Thermodynamic stability in words | Temperature at which the form is thermodynamically (physically) stable (listed as Form A) | Relationship to Form B (table of estimated transition point temperatures) (relative to Form B) | Estimated Transition Point Temperature between Enantiotropic Polymorphs, to Form C (transition to Form C)
Cc1nc(N2CCC3(CC2)CO[C@@H](C)[C@H]3N)c(CO)nc1Sc1ccnc(N)c1Cl [Compound 1 Form D, {6-[(2-amino-3-chloropyridin-4-yl)sulfanyl]-3-[(3S,4S)-4-amino-3-methyl-2-oxa-8-azaspiro[4.5]decan-8-yl]-5-methylpyrazin-2-yl}methanol] | immediate (and reversible) | A > (C and D and B) | < 43 °C | < 43 °C | C > D > A > B | C > A > (D and B) | D > C > A > B | – | – | – | – | –
Cc1nc(N2CCC3(CC2)CO[C@@H](C)[C@H]3N)c(CO)nc1Sc1ccnc(N)c1Cl [Compound 1 Form C, {6-[(2-amino-3-chloropyridin-4-yl)sulfanyl]-3-[(3S,4S)-4-amino-3-methyl-2-oxa-8-azaspiro[4.5]decan-8-yl]-5-methylpyrazin-2-yl}methanol] | immediate (and reversible) | A > (C and D and B) | – | – | C > D > A > B | C > A > (D and B) | D > C > A > B | ~43 °C | – | – | – | –
Cc1nc(N2CCC3(CC2)CO[C@@H](C)[C@H]3N)c(CO)nc1Sc1ccnc(N)c1Cl [Compound 1 Form B, {6-[(2-amino-3-chloropyridin-4-yl)sulfanyl]-3-[(3S,4S)-4-amino-3-methyl-2-oxa-8-azaspiro[4.5]decan-8-yl]-5-methylpyrazin-2-yl}methanol] | – | – | – | – | – | – | – | – | metastable form at all temperatures | – | – | –
Cc1nc(N2CCC3(CC2)CO[C@@H](C)[C@H]3N)c(CO)nc1Sc1ccnc(N)c1Cl [Compound 1 Form A, {6-[(2-amino-3-chloropyridin-4-yl)sulfanyl]-3-[(3S,4S)-4-amino-3-methyl-2-oxa-8-azaspiro[4.5]decan-8-yl]-5-methylpyrazin-2-yl}methanol] | immediate (and reversible) | A > (C and D and B) | > 80 °C | – | C > D > A > B | C > A > (D and B) | D > C > A > B | ~65 °C | – | > 80 °C | monotropic | ~80 °C
